# Measurements from US20230203081A1, “LINCOSAMIDE ANTIBIOTICS AND USES THEREOF” (President and Fellows of Harvard College, priority 2020, published 2023).
# Like-named read-outs stand apart in the source and are kept apart here.
# Key:
# Type in all cases: cell-based
# S. aureus MP-549 msrA = assay: microbe, parasite or virus in culture; conditions: Staphylococcus aureus, MP549MSRA; S. aureus HAV#032, MP-549; MSR(A); read-out: MIC
# Procedure, shortened: (§1)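 Inoculum for broth microdilution was 5×10^5 CFU/mL final, prepared from overnight 35° C blood-agar subcultures (separate handling for streptococcal and anaerobic strains); MICs read by CLSI broth microdilution or agar dilution.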
# E. coli ΔTolC = assay: microbe, parasite or virus in culture; conditions: Escherichia coli, E. coli HAV#038; ΔTolC
# Procedure, shortened: as §1
# H. influenzae ATCC 49247 = assay: MIC (broth microdilution or agar dilution, CLSI); conditions: Haemophilus influenzae, ATCC49247
# Procedure, shortened: as §1
# S. pneumoniae ATCC 49619 = assay: MIC (broth microdilution or agar dilution, CLSI); conditions: Streptococcus pneumoniae, read-out: MIC
# Procedure, shortened: as §1
# E. coli LptD = assay: MIC (broth microdilution or agar dilution, CLSI); conditions: Escherichia coli, E. coli HAV#040; LptD; read-out: MIC
# Procedure, shortened: as §1
# S. aureus ATCC 29213 = assay: MIC (broth microdilution or agar dilution, CLSI); conditions: Staphylococcus aureus, read-out: MIC
# Procedure, shortened: as §1
# K. pneumoniae ATCC 10031 = assay: MIC (broth microdilution or agar dilution, CLSI); conditions: Klebsiella pneumoniae, ATCC10031, K. pneumoniae HAV#008, ATCC 10031; read-out: MIC
# Procedure, shortened: as §1
# S. pyogenes ATCC 19615 = assay: MIC (broth microdilution or agar dilution, CLSI); conditions: Streptococcus pyogenes, read-out: MIC
# Procedure, shortened: as §1
# E. faecalis ATCC 29212 = assay: MIC (broth microdilution or agar dilution, CLSI); conditions: Enterococcus faecalis, read-out: MIC
# Procedure, shortened: as §1
# E. coli ATCC 25922 = assay: MIC (broth microdilution or agar dilution, CLSI); conditions: Escherichia coli
# Procedure, shortened: as §1
# B. fragilis ATCC 25285 = assay: MIC (broth microdilution or agar dilution, CLSI); conditions: Bacteroides fragilis, ATCC25285, B. fragilis HAV#013, ATCC 25285; read-out: MIC
# Procedure, shortened: (§2)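 Triplicate CLSI determinations by broth or agar dilution, compound at 128-0.06 μg/mL in 2.5% DMSO; special handling for anaerobes. Broth microdilution used 5×10^5 CFU/mL inocula in cation-adjusted Mueller-Hinton broth.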
# C. difficile ATCC 700057 = assay: MIC (broth microdilution or agar dilution, CLSI); conditions: Clostridioides difficile, ATCC700057; C. difficile HAV#011, ATCC 700057; read-out: MIC
# Procedure, shortened: as §2
# E. coli MP-9 ΔTolC = assay: MIC (broth microdilution or agar dilution, CLSI); conditions: Escherichia coli
# Procedure, shortened: as §1
# [1] = tested on: E. coli MP-74 LptD mutant; assay: MIC (broth microdilution or agar dilution, CLSI); conditions: Escherichia coli
# Procedure, shortened: as §2
# [2] = ATCC49619, S. pneumoniae ATCC 49619
# [3] = ATCC29213, S. aureus ATCC 29213
# [4] = ATCC19615, S. pyogenes ATCC 19615
# [5] = ATCC29212, E. faecalis ATCC 29212
# [6] = H. influenzae ATCC 49247, read-out: MIC
# [7] = ATCC25922, E. coli ATCC 25922, read-out: MIC
Compound,MIC (S. pneumoniae ATCC 49619; [2]) [µg/mL],MIC (E. coli MP-9 ΔTolC) [µg/mL],MIC (S. aureus ATCC 29213; [3]) [µg/mL],MIC (S. pyogenes ATCC 19615; [4]) [µg/mL],MIC (E. faecalis ATCC 29212; [5]) [µg/mL],MIC [1] [µg/mL],MIC (H. influenzae ATCC 49247; [6]) [µg/mL],MIC (E. coli ATCC 25922; [7]) [µg/mL],further results
CCN1CCN(c2cc3c(cc2F)c(=O)c(C(=O)O)cn3C2CC2)CC1 [Enrofloxacin],–,–,–,–,–,–,–,–,"MIC (S. aureus MP-549 msrA): 0.5 µg/mL; MIC (E. coli ΔTolC): ≤ 0.06 µg/mL; MIC (H. influenzae ATCC 49247; H. influenzae HAV#007, ATCC 49247, read-out: MIC): ≤ 0.06 µg/mL; MIC (S. pneumoniae ATCC 49619; ATCC49619, S. pneumoniae HAV#003, ATCC 49619): 0.25 µg/mL; MIC (E. coli LptD): ≤ 0.06 µg/mL; MIC (S. aureus ATCC 29213; ATCC29213, S. aureus HAV#001, ATCC 29213, MP-549): 0.125 µg/mL; MIC (K. pneumoniae ATCC 10031): ≤ 0.06 µg/mL; MIC (S. pyogenes ATCC 19615; ATCC19615, S. pyogenes HAV#004, ATCC 19615): 0.25 µg/mL; MIC (E. faecalis ATCC 29212; ATCC29212, E. faecalis HAV#005, ATCC 29212): 0.5 µg/mL; MIC (E. coli ATCC 25922; ATCC25922, E. coli HAV#006, ATCC 25922, read-out: MIC): ≤ 0.06 µg/mL; MIC (B. fragilis ATCC 25285): 2 µg/mL; MIC (C. difficile ATCC 700057): 32 µg/mL"
CSC1O[C@H]([C@H](NC(=O)[C@@H]2[C@@H]3OCC[C@H](CC(C)(C)C)C[C@H]3CN2C)[C@H](C)Cl)CC(O)[C@H]1O (stereo partly drawn) [FSA-513004a],0.5,> 128,1,0.25,1,128,–,–,"MIC (H. influenzae ATCC 49247): 128 µg/mL; MIC (E. coli ATCC 25922; ATCC25922, E. coli ATCC 25922): > 128 µg/mL"
CSC1O[C@H]([C@H](NC(=O)[C@@H]2[C@@H]3OCC[C@H](C4CCCCC4)C[C@H]3CN2C)[C@H](C)Cl)CC(O)[C@H]1O (stereo partly drawn) [FSA-513002a],0.5,64,1,1,2,64,> 64,> 64,–
CSC1O[C@H]([C@H](NC(=O)[C@@H]2[C@@H]3OCC[C@@H](C4CCCCC4)C[C@H]3CN2C)[C@H](C)Cl)CC(O)[C@H]1O (stereo partly drawn) [FSA-513002b],0.25,8,0.5,0.25,0.5,16,8,128,–
